Several values for one entry are separate records, joined by “and”; a condition that tells them apart may be missing. Identical values can stand only once.
Assays:
PGE2 = PGE2 release in stimulated NHEK (ELISA); type: cell-based, human; settings: PMA 1 μg/ml, 100 μM
Protocol: (§1) NHEK were pre-incubated for 24 h with the test compounds. The medium was replaced with the NHEK culture medium containing the inflammatory inducers (PMA or Poly I:C) and incubated for another 24 hours. Positive and negative controls ran in parallel. At the endpoint the culture supernatants were quantified of secreted IL-8, PGE2 and TNF-α by means of ELISA.

NF-κB = NF-κB activity in NIH3T3-KBF-Luc cells stimulated with TNFα (luciferase); type: cell-based; settings: for % Activation: TNFα alone = 100
Protocol: NIH3T3-KBF-Luc cells were stably transfected with the KBF-Luc plasmid (Sancho (2003) Mol Pharmacol 63:429-438), which contains three copies of NF-κB binding site (from major histocompatibility complex promoter), fused to a minimal simian virus 40 promoter driving the luciferase gene. Cells (1×10^4 for NIH3T3-KBF-Luc) were seeded the day before the assay on 96-well plate. Then the cells were treated with the test substances for 15 min and then stimulated with 30 ng/ml of TNFα. After 6 h, the cells were washed twice with PBS and lysed in 50 μl lysis buffer containing 25 mM Tris-phosphate (pH 7.8), 8 mM MgCl2, 1 mM DTT, 1% Triton X-100, and 7% glycerol during 15 min at RT in a horizontal shaker. Luciferase activity was measured using a GloMax 96 microplate luminometer (Promega) following the instructions of the luciferase assay kit (Promega, Madison, Wis., USA). […] The experiments for each concentration of the test items were done in triplicate wells.

[1] = test system: hydrogen peroxide (DHR) in NHEK cells; test: Protection against UV-induced H2O2 stress in NHEK (DHR probe, flow cytometry); type: cell-based, human
Protocol: Pre-incubated NHEK were incubated with the test compound for 24 h. Then the specific fluorescence probe for the measurement of hydrogen peroxide (DHR) or lipid peroxides (C11-fluor) was added and incubated for 45 min. Irradiation occurred with in H2O2 determination UVB at 180 mJ/cm^2 (+UVA at 2839 mJ/cm^2) or UVB at 240 mJ/cm^2 (+UVA at 3538 mJ/cm^2) in lipid peroxide, respectively, using a SOL500 Sun Simulator lamp. After irradiation the cells were post-incubated for 30 min before flow-cytometry analysis.

TNF-α = TNF-α release in stimulated NHEK (ELISA); type: cell-based, human; settings: poly(I:C)
Protocol: as §1

procollagen I = test: Procollagen I synthesis in NHDF (ELISA); type: cell-based, human; settings: 100 μM, 72 hours
Protocol: Tests were performed with normal human dermal fibroblast cultures at the 8th passage. Cells were grown in DMEM supplemented with glutamine at 2 mM, penicillin at 50 U/mL and streptomycin (50 μg/mL) and 10% of fetal calf serum (FCS) at 37° C. in a 5% CO2 atmosphere.
Fibroblasts were cultured for 24 hours before the cells were incubated with the test compounds for further 72 hours. After the incubation the culture supernatants were collected in order to measure the released quantities of procollagen I, VEGF, and fibronectin by means of ELISA. Reference test compounds were vitamin C (procollagen I), PMA (VEGF), and TGF-β (fibronectin).

HaCaT cells = test: Glucose uptake (2-NBDG) in HaCaT keratinocytes; type: cell-based; parameters: key to Measure 1 / Measure 2 / Measure 3 / Mean: total green object integrated intensity, GCU×μm2×Well; settings: +2NBDG 50 μM, 24 h; for Measure 1 / Measure 2 / Measure 3: HaCaT cells, fluorescence; for RFU specific: mean minus control; for Mean: mean of triplicate measurements; for % Glucose uptake: Rosiglitazone 80 μM = 100%
Protocol: HaCaT cells (5×10^4) were seeded in 96-well black plates and incubated for 24 h. Then, medium was removed and the cells cultivated in OptiMEM, labeled with 50 μM 2-NBDG (2-[N-(7-nitrobenz-2-oxa-1,3-diazol-4-yl) amino]-2-deoxy-D-glucose and treated with the test substances or the positive control, Rosiglitazone, for 24 h. Medium was removed and the wells were carefully washed with PBS and incubated in PBS (100l/well). Finally the fluorescence was measured using the Incucyte FLR software, the data were analyzed by the total green object integrated intensity (GCU×μm2×Well) of the imaging system IncuCyte HD (Essen BioScience). The fluorescence of Rosiglitazone is taken as 100% of glucose uptake, and the glucose uptake was calculated as (% Glucose uptake)=100(T−B)/(R−B), where T (treated) is the fluorescence of test substance-treated cells, B (Basal) is the fluorescence of 2-NBDG cells and […] is the fluorescence of cells treated with Rosiglitazone.

[2] = 100 μM, 180 mJ/cm^2 UVB (2839 mJ/cm^2 UVA)

SMILES: COc1ccc(C2CC(=O)c3c(cc(O)cc3O[C@@H]3O[C@@H](C)[C@H](O)[C@@H](O)[C@H]3O)O2)cc1O (stereo partly drawn) [HESR1, Hesperetin-5-O-α-L-rhamnoside]
- inhibition at 100 µM (PGE2; Homo sapiens, NHEK): 74%
- Cytokine [pg/mL] PGE2 Mean (PGE2): 507 pg/mL
- PGE2 % stim. control (PGE2): 32%
- Cytokine [pg/mL] PGE2 (PGE2; single values): 582 pg/mL and 431 pg/mL
- RLU 1 (NF-κB; 10 μM + 30 ng/ml TNFα): 186120 RLU
- RLU 2 (NF-κB; 10 μM + 30 ng/ml TNFα): 181040 RLU
- RLU 3 (NF-κB; 10 μM + 30 ng/ml TNFα): 182280 RLU
- RLU MEAN (NF-κB; 10 μM + 30 ng/ml TNFα): 183147 RLU
- RLU specific (NF-κB; 10 μM + 30 ng/ml TNFα): 145883 RLU
- % Activation (NF-κB; 10 μM + 30 ng/ml TNFα): 178.4%
- RLU 1 (NF-κB; 25 μM + 30 ng/ml TNFα): 218940 RLU
- RLU 2 (NF-κB; 25 μM + 30 ng/ml TNFα): 216580 RLU
- RLU 3 (NF-κB; 25 μM + 30 ng/ml TNFα): 213320 RLU
- RLU MEAN (NF-κB; 25 μM + 30 ng/ml TNFα): 216280 RLU
- RLU specific (NF-κB; 25 μM + 30 ng/ml TNFα): 179017 RLU
- % Activation (NF-κB; 25 μM + 30 ng/ml TNFα): 218.9%
- anti-oxidative function on mitochondrially produced hydrogen peroxids species (in words) [1]: anti-oxidative function
- H2O2 % irradiated control [1, 2]: 62%
- H2O2 (AU) Mean [1, 2]: 1152 AU
- H2O2 Protection % [1, 2]: 45%
- H2O2 (AU) (DHR GMFI) ([1]; 100 μM, 180 mJ/cm^2 UVB (2839 mJ/cm^2 UVA), single values): 1046 AU and 1258 AU
- inhibition at 100 µM (TNF-α; Homo sapiens, NHEK, read-out: TNFα Inhibition %): 26%
- Cytokine [pg/mL] TNFα Mean (TNF-α; 100 μM): 423 pg/mL
- TNFα % stim. control (TNF-α; 100 μM): 75%
- Cytokine [pg/mL] TNFα (TNF-α; 100 μM, single values): 416 pg/mL and 429 pg/mL
- Procollagen I % Control (procollagen I): 118%
- Procollagen I Mean (procollagen I): 1968 ng/mL
- Procollagen I (procollagen I; single values): 1929 ng/mL and 2007 ng/mL
- Measure 1 (HaCaT cells; 25 μM test substance): 756943
- Measure 2 (HaCaT cells; 25 μM test substance): 549324
- Measure 3 (HaCaT cells; 25 μM test substance): 384251
- RFU specific (HaCaT cells; 25 μM test substance): 557192 RFU
- Mean (HaCaT cells; 25 μM test substance): 563506
- % Glucose uptake (HaCaT cells; 25 μM test substance): 64.1%
- Measure 1 (HaCaT cells; 50 μM test substance): 501977
- Measure 2 (HaCaT cells; 50 μM test substance): 642949
- Measure 3 (HaCaT cells; 50 μM test substance): 529620
- RFU specific (HaCaT cells; 50 μM test substance): 551868 RFU
- Mean (HaCaT cells; 50 μM test substance): 558182
- % Glucose uptake (HaCaT cells; 50 μM test substance): 63.5%
